Results: patent publication US20100216751A1 (priority 2007, published 2010)

Target: human serum albumin (Homo sapiens, UniProt P02768)
Test: Protein binding to human serum albumin
Assay type: in vitro ADME

human serum albumin, sequence (P02768 25-609): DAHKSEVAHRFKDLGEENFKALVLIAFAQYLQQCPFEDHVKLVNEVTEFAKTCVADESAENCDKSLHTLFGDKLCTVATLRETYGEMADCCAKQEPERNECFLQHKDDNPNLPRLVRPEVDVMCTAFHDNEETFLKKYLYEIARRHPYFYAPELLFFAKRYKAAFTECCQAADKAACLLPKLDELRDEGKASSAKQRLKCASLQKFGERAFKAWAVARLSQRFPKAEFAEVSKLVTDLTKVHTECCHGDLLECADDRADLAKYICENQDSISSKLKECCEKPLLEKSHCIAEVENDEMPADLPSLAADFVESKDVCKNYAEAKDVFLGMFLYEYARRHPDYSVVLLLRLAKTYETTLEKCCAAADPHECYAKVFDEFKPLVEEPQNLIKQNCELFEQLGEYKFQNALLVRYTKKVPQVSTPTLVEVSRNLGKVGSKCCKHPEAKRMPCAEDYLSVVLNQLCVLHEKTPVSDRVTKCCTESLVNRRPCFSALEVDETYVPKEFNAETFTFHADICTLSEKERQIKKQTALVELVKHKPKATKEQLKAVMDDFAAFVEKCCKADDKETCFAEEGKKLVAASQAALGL

C=C(C)[C@@H]1CC[C@]2(C(=O)O)CC[C@]3(C)[C@H](CC[C@@H]4[C@@]5(C)CC[C@H](OC(=O)CC(C)(C)C(=O)O)C(C)(C)[C@@H]5CC[C@]43C)[C@@H]12 [Bevirimat, 3-O-(3′,3′-dimethylsuccinyl)betulinic acid]
fraction unbound: ≤ 0.01
